Measured values as given in patent publication US9522890B2, “Compounds acting at multiple prostaglandin receptors giving a general anti-inflammatory response” (Allergan, Inc., priority 2011, dated 2016).

What was measured:
Assay type in all cases: cell-based
[1] = target: T1, human recombinant prostanoid FP receptor (Homo sapiens, UniProt P43088); experiment: FLIPR Ca2+ signaling PG antagonist assay, FP receptor stable cell line; settings: HEK-293 EBNA cells, standard agonist 17-phenyl-PGF2α
T1 construct: expressed in transfected cells
T1 sequence (P43088 whole entry): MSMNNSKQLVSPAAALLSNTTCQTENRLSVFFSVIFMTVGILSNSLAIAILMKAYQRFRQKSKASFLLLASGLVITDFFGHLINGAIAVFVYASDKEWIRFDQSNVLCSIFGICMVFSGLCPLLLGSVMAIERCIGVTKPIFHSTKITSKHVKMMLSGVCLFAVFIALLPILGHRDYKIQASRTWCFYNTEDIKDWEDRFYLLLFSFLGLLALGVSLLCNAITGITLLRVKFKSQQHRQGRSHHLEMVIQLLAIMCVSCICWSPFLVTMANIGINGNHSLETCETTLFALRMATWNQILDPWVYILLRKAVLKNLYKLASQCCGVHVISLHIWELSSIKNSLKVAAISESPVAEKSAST
Experimental: (§1) The above compounds were tested for PG antagonist activity as follows using human recombinant prostanoid receptor (DP1, EP1-4, FP, IP and TP) stable cell lines:
(§2) In order to measure the response of Gs and Gi coupled prostanoid receptors as a Ca^2+ signal, chimeric G protein cDNAs were used. Stable cell lines over-expressing human prostanoid DP1, EP1-4, FP, IP, and TP receptors were established as follows:
(§3) Briefly, human prostanoid DP1, EP2, and EP4 receptor cDNAs were co-transfected with chimeric Gqs cDNA containing a haemagglutanin (HA) epitope; human prostanoid EP3 receptors were co-transfected with chimeric Gqi-HA; human EP1, FP, IP, and TP receptor cDNAs were expressed with no exogenous G-proteins. Gqs and Gqi chimeric cDNAs (Molecular Devices, Sunnyvale, Calif., U.S.A.), as well as cDNAs of prostanoid receptors, were cloned into a pCEP4 vector with a hygromycin B selection marker. Transfection into HEK-293 EBNA (Epstein-Barr virus nuclear antigen) cells was achieved by the FuGENE 6 transfection Reagent (Roche Applied Science, Indianapolis, Ind., USA). Stable transfectants were selected according to hygromycin resistance. Because Gqs and Gqi contained an HA epitope, G-protein expression was detected by Western blotting analysis using anti-mouse HA monoclonal antibody and horseradish peroxidase (HRP)-conjugated secondary antibody, while functional expression of prostanoid receptors was detected by FLIPR screening (Matias et al., 2004). These stable cell lines were validated using previously published antagonists at 10 μM against serial dilutions of standard agonists by FLIPR functional assays for Ca^2+ Signaling (as described below).
(§4) Ca^2+ signaling studies were performed using a FLIPR TETRA system (Molecular Devices, Sunnyvale, Calif., USA) in the 384-format. This is a high-throughput instrument for cell-based assays to monitor Ca^2+ signaling associated with GPCRs and ion channels. Cells were seeded at a density of 5×10^4 cells/well in BioCoat poly-D-lysine coated, black wall, clear bottom 384-well plates (BD Biosciences, Franklin lakes, NJ, USA) and allowed to attach overnight in an incubator at 37° C. The cells were then washed twice with HBSS-HEPES buffer (Hanks' balanced salt solution without bicarbonate and phenol red, 20 mM HEPES, pH 7.4) using an ELx405 Select CW Microplate Washer (BioTek, Winooski, Vt., USA). After 60 min of dye-loading in the dark using the Ca^2+-sensitive dye Fluo-4AM (Invitrogen, Carlsbad, Calif., USA), at a final concentration of 2×10^−6M, the plates were washed 4 times with HBSS-HEPES buffer to remove excess dye and leaving 50 μl of buffer in each well. The plates were then placed in the FLIPR TETRA instrument and allowed to equilibrate at 37° C. Compounds were added in a 25 μl volume to each well to give final concentrations of 0.1 μM, 0.3 μM, 1 μM, 3 μM, 10 μM, and 30 μM; or 0.067 μM, 0.1 μM, 0.2 μM, 0.3 μM, 0.67 μM, and 1 μM for cells over-expressing TP receptors. After 4.5 minutes, a 7-point serial dilution of the standard agonist for the corresponding receptor, in a 25 μl volume was injected at the final concentrations from 10^−11M to 10^−5M in 10-fold serial dilution increments for cells expressing human recombinant DP1, EP1, EP2, EP3, EP4, FP, and IP receptors. The dose range for the standard agonist for human recombinant TP receptors was from 10^−12M to 10^−6M. HBSS-HEPES buffer was used as the negative control for the standard agonists. Cells were excited with LED (light emitting diode) excitation at 470-495 nm and emission was measured through an emission filter at 515-575 nm. Assay plates were read for 3.5 minutes using the FLIPR^TETRA. The peak increase in fluorescence intensity was recorded for each well. On each plate, negative controls, dose response of positive controls, and co-treatments of antagonist-agonist for each dose were in triplicates. Standard agonists were as follows: DP=BW 245C, EP1-EP4=PGE2, FP=17-phenyl-PGF2α, IP=Cicaprost, and TP=U-46619. […]

[2] = target: T2, human recombinant prostanoid DP1 receptor (Homo sapiens, UniProt Q13258); experiment: FLIPR Ca2+ signaling PG antagonist assay, DP1 receptor stable cell line; settings: HEK-293 EBNA cells with chimeric Gqs, standard agonist BW 245C; read-out: DP (antagonist Kb)
T2 construct: expressed in transfected cells; co-transfected with chimeric Gqs-HA
T2 sequence (Q13258 1-359): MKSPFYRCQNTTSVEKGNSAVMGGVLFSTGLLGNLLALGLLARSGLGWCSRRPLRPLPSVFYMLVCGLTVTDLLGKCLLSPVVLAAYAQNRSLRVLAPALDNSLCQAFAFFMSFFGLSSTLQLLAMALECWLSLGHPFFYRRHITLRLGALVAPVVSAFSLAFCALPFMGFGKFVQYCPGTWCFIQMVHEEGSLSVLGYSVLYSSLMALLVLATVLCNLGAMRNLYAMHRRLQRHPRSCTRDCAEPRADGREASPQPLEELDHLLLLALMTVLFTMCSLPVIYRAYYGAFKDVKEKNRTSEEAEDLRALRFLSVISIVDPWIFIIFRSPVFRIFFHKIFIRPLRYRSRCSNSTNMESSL
Experimental: as §1, §2, §3, §4

[3] = target: T3, human recombinant prostanoid EP1 receptor (Homo sapiens, UniProt P34995); experiment: FLIPR Ca2+ signaling PG antagonist assay, EP1 receptor stable cell line; settings: HEK-293 EBNA cells, standard agonist PGE2
T3 construct: expressed in transfected cells
T3 sequence (P34995 1-402): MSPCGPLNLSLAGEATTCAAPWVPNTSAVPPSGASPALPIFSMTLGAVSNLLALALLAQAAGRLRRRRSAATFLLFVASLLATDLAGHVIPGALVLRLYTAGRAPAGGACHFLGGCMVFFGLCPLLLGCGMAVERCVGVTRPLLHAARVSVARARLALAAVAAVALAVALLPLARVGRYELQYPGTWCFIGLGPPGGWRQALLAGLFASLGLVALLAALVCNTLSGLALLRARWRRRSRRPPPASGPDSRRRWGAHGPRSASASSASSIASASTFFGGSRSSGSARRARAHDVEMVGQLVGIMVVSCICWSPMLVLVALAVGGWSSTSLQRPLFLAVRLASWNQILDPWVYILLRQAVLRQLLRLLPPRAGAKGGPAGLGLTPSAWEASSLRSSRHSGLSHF
Experimental: as §1, §2, §3, §4

[4] = target: T4, human recombinant prostanoid EP2 receptor (Homo sapiens, UniProt P43116); experiment: FLIPR Ca2+ signaling PG antagonist assay, EP2 receptor stable cell line; settings: HEK-293 EBNA cells with chimeric Gqs, standard agonist PGE2
T4 construct: expressed in transfected cells; co-transfected with chimeric Gqs-HA
T4 sequence (P43116 whole entry): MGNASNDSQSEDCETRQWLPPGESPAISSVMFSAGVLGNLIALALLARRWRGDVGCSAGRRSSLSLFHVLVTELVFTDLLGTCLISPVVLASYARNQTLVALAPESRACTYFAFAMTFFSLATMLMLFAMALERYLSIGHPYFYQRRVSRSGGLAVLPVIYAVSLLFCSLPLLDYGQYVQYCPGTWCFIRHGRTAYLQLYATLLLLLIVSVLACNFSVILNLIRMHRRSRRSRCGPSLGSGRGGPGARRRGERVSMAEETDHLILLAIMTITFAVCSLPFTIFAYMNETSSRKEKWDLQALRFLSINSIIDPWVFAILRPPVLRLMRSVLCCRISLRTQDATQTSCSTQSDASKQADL
Experimental: as §1, §2, §3, §4

[5] = target: T5, human recombinant prostanoid EP3 receptor (Homo sapiens, UniProt P43115); experiment: FLIPR Ca2+ signaling PG antagonist assay, EP3 receptor stable cell line; settings: HEK-293 EBNA cells with chimeric Gqi, standard agonist PGE2
T5 construct: expressed in transfected cells; co-transfected with chimeric Gqi-HA
T5 sequence (P43115 1-390): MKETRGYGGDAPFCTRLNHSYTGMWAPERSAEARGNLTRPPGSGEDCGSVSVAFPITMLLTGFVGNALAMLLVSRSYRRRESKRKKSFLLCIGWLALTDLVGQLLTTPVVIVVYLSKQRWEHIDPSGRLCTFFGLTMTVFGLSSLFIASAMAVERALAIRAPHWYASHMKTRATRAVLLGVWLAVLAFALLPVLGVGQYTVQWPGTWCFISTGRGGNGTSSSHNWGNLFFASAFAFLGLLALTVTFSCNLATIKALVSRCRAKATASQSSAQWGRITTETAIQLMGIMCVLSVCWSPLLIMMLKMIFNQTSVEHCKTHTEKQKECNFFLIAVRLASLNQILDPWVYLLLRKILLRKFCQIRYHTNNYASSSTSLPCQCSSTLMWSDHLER
Experimental: as §1, §2, §3, §4

[6] = target: T6, human recombinant prostanoid EP4 receptor (Homo sapiens, UniProt P35408); experiment: FLIPR Ca2+ signaling PG antagonist assay, EP4 receptor stable cell line; settings: HEK-293 EBNA cells with chimeric Gqs, standard agonist PGE2
T6 construct: expressed in transfected cells; co-transfected with chimeric Gqs-HA
T6 sequence (P35408 whole entry): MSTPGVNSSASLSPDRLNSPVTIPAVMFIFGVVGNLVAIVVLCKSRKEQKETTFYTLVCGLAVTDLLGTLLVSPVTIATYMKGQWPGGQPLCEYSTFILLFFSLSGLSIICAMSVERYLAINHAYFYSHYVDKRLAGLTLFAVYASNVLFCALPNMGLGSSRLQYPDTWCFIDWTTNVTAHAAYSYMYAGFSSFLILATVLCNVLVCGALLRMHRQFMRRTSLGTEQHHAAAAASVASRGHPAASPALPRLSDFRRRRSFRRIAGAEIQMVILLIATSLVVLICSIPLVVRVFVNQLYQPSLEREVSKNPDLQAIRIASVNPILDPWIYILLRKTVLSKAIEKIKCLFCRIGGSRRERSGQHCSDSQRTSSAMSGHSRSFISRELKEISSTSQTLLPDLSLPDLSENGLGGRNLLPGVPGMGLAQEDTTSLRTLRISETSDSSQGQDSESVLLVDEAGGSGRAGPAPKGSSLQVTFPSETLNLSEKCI
Experimental: as §1, §2, §3, §4

[7] = target: T7, human recombinant prostanoid IP receptor (Homo sapiens, UniProt P43119); experiment: FLIPR Ca2+ signaling PG antagonist assay, IP receptor stable cell line; settings: HEK-293 EBNA cells, standard agonist Cicaprost
T7 construct: expressed in transfected cells
T7 sequence (P43119 whole entry): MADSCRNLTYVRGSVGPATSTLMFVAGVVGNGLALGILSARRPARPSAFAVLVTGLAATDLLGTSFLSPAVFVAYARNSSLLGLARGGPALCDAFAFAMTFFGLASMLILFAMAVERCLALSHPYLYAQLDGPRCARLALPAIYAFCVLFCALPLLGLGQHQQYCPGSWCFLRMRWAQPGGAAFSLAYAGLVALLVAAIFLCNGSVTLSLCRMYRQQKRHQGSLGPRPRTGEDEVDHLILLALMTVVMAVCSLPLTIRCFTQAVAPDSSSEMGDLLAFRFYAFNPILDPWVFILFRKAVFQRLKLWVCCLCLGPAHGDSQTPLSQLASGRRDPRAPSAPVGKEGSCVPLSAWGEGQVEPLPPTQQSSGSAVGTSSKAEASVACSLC
Experimental: as §1, §2, §3, §4

[8] = target: T8, human recombinant prostanoid TP receptor (Homo sapiens, UniProt P21731); experiment: FLIPR Ca2+ signaling PG antagonist assay, TP receptor stable cell line; settings: HEK-293 EBNA cells, standard agonist U-46619
T8 construct: expressed in transfected cells
T8 sequence (P21731 1-343): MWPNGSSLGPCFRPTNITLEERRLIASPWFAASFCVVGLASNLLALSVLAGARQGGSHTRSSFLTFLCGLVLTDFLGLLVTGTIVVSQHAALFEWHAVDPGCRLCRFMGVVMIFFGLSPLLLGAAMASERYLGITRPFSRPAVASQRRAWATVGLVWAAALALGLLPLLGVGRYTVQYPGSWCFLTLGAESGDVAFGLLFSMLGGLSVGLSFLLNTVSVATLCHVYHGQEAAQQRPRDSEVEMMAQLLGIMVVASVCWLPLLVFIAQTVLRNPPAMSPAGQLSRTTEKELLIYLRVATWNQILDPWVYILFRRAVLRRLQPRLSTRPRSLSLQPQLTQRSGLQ
Experimental: as §1, §2, §3, §4

Row | SMILES | Kb [1] | Kb [2] | Kb [3] | Kb [4] | Kb [5] | Kb [6] | Kb [7] | Kb [8]
1 | CCC(CC)COc1ccc(Br)cc1Cn1nc(C(=O)O)cc1C [Example 6, 1-[5-BROMO-2-(2-ETHYL-BUTOXY)-BENZYL]-5-METHYL-1H-PYRAZOLE-3-CARBOXYLIC ACID] | 35 nM | 150 nM | 10 nM | 6200 nM | ≥ 10000 nM | 800 nM | 500 nM | < 1 nM
2 | Cc1cc(C(=O)O)nn1Cc1cc(Br)ccc1OCC1CCCC1 [Example 2, 1-(5-BROMO-2-CYCLOPENTYLMETHOXY-BENZYL)-5-METHYL-1H-PYRAZOLE-3-CARBOXYLIC ACID] | 20 nM | 400 nM | 10 nM | ≥ 10000 nM | ≥ 10000 nM | 400 nM | 1300 nM | < 1 nM
3 | Cc1cc(C(=O)O)nn1Cc1cc(Cl)ccc1OCC1CCCC1 [Example 1, 1-(5-CHLORO-2-CYCLOPENTYLMETHOXY-BENZYL)-5-METHYL-1H-PYRAZOLE-3-CARBOXYLIC ACID] | 150 nM | 800 nM | 30 nM | ≥ 10000 nM | ≥ 10000 nM | 800 nM | ≥ 10000 nM | < 1 nM
4 | Cc1cc(C(=O)O)nn1Cc1cc(C(F)(F)F)ccc1OCC1CCCC1 [Example 3, 1-(2-CYCLOPENTYLMETHOXY-5-TRIFLUOROMETHYL-BENZYL)-5-METHYL-1H-PYRAZOLE-3-CARBOXYLIC ACID] | 80 nM | 700 nM | 5 nM | 8900 nM | ≥ 10000 nM | 700 nM | 4000 nM | 1 nM
5 | CCC(C)(CC)COc1ccc(Br)cc1Cn1nc(C(=O)O)cc1C [Example 7, 1-[5-BROMO-2-(2-ETHYL-2-METHYL-BUTOXY)-BENZYL]-5-METHYL-1H-PYRAZOLE-3-CARBOXYLIC ACID] | 80 nM | 150 nM | 19 nM | 3600 nM | ≥ 10000 nM | 2070 nM | 1700 nM | 11 nM
6 | COc1ccc(COc2ccc(Cl)cc2Cn2nc(C(=O)NS(=O)(=O)c3ccccc3)cc2C)cc1 [Example 4, N-{1-[5-CHLORO-2-(4-METHOXY-BENZYLOXY)-BENZYL]-5-METHYL-1H-PYRAZOLE-3-CARBONYL}-BENZENESULFONAMIDE] | 400 nM | 800 nM | 10 nM | 4900 nM | 2500 nM | 140 nM | 900 nM | 2 nM

The remaining lines, values ahead:

Row | Kb [1] | Kb [2] | Kb [3] | Kb [4] | Kb [5] | Kb [6] | Kb [7] | Kb [8] | SMILES
7 | 1700 nM | 2600 nM | 10 nM | ≥ 10000 nM | 1500 nM | 75 nM | 2000 nM | 10 nM | Cc1cc(C(=O)NS(=O)(=O)c2ccccc2)nn1Cc1cc(Cl)ccc1OCc1ccc(Cl)cc1 [Example 5, N-{1-[5-CHLORO-2-(4-CHLORO-BENZYLOXY)-BENZYL]-5-METHYL-1H-PYRAZOLE-3-CARBONYL}-BENZENESULFONAMIDE]
8 | 8 nM | 130 nM | 10 nM | ≥ 10000 nM | 4100 nM | 700 nM | 5600 nM | 8 nM | Cc1cc(C(=O)O)nn1Cc1cc(Br)ccc1OCC1CCC1 [Example 8, 1-(5-BROMO-2-CYCLOBUTYLMETHOXY-BENZYL)-5-METHYL-1H-PYRAZOLE-3-CARBOXYLIC ACID]
9 | 30 nM | 190 nM | 16 nM | 3300 nM | 2600 nM | 600 nM | ≥ 10000 nM | 10 nM | Cc1cc(C(=O)O)nn1Cc1cc(Br)ccc1OCC1(C(F)(F)F)CCC1 [Example 9, 1-[5-BROMO-2-(1-TRIFLUOROMETHYL-CYCLOBUTYLMETHOXY)-BENZYL]-5-METHYL-1H-PYRAZOLE-3-CARBOXYLIC ACID]
